Experimental data: PMC3878625, “Inhibitory effects of grape skin extract and resveratrol on fatty acid synthase” (BMC Complementary and Alternative Medicine, 2013)

Target: T1, Fatty acid synthase (FAS) (Gallus gallus, UniProt P12276)
T1 construct: gene FASN; FAS purified from chicken liver
Assay: spectrophotometric NADPH oxidation assay ([…] nm) of purified FAS, overall and KR reactions; time-dependent inhibition and Lineweaver-Burk kinetics
Assay type: biochemical

T1 sequence (P12276 2-2512): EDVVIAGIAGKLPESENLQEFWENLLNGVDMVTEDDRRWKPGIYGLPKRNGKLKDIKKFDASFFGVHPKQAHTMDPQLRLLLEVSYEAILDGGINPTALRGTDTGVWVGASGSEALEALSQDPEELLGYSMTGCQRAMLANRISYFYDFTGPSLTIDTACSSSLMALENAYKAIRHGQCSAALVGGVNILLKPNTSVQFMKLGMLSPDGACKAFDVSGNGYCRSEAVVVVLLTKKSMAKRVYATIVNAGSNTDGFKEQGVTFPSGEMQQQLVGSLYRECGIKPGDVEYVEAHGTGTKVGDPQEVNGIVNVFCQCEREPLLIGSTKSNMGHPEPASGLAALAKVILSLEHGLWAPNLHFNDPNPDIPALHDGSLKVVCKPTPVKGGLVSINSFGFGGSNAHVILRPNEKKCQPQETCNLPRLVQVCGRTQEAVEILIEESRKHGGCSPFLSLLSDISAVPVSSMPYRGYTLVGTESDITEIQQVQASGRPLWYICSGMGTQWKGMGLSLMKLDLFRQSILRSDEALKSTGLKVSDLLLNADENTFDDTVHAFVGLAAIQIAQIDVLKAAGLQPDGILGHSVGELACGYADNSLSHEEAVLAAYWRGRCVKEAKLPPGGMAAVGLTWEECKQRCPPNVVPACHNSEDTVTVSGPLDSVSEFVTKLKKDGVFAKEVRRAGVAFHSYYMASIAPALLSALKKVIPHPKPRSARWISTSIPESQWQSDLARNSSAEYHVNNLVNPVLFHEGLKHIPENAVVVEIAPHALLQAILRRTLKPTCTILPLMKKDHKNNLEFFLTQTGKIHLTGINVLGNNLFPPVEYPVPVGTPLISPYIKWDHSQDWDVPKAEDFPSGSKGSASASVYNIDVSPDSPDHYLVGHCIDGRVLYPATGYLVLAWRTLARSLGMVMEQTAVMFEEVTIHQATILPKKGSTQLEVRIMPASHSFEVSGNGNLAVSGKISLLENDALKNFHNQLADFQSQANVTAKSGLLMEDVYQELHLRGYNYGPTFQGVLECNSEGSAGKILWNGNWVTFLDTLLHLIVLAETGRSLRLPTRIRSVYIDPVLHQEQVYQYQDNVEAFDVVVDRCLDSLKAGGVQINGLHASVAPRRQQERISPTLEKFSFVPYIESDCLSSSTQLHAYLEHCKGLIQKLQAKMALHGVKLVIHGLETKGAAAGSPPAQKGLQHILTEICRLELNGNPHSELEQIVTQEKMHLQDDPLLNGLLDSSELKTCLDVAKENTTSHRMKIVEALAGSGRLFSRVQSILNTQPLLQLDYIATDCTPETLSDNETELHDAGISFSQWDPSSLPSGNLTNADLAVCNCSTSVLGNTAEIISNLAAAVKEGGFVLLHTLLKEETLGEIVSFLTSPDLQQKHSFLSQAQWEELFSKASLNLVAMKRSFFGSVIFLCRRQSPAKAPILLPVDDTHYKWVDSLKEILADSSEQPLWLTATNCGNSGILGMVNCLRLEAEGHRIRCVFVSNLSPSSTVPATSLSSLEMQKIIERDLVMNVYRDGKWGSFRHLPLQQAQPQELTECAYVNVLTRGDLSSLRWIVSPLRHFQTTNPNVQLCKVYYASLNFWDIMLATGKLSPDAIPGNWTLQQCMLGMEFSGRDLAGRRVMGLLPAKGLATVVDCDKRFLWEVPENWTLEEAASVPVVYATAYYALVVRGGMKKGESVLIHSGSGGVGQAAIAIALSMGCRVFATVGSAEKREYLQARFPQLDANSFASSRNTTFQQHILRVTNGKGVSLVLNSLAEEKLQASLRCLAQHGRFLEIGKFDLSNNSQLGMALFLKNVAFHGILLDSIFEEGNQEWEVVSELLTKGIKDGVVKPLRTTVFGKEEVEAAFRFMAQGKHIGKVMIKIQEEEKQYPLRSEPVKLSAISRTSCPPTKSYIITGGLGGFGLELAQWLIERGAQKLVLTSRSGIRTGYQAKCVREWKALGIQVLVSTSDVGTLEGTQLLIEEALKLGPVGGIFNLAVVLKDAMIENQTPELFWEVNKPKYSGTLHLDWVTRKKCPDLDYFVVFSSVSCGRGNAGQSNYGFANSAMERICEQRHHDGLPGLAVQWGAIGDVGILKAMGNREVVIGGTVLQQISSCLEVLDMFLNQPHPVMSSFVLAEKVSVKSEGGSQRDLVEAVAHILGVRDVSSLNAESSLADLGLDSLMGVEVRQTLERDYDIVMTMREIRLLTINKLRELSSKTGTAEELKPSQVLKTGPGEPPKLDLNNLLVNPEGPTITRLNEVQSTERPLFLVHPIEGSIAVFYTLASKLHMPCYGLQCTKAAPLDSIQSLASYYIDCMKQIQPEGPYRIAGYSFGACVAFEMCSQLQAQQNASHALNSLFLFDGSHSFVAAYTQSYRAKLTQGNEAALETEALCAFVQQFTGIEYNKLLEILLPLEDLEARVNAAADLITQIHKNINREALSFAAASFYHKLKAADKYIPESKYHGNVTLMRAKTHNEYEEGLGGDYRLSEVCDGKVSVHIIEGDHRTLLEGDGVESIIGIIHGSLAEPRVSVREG

`Oc1ccc(/C=C/c2cc(O)cc(O)c2)cc1` [resveratrol, 3,5,4′-trihydroxystilbene] was tested, and the IC50 was 48.6 µM.
